Common to all, as to format: biochemical
Test [1] can be described thus: ORAC oxygen radical absorbance capacity (USTM 192), in tubo. On the set-up: ORAC: unit not given here. The settings on record: for ORAC/peroxyl: Table II; for ORAC: Tables III-IX, unit not given. The method, then: (§1) In the course of the study, polypeptides were prepared by conventional synthesis methods and screened in tubo for antioxidant activity for peroxyl radicals (ROO.), superoxide radicals (O2.^−) and hydroxyl radicals (.OH).
(§2) In the screening standard testing for oxygen radical absorbance capacity (ORAC), hydroxyl radical absorbance capacity (HORAC), superoxide radical absorbance capacity (SORAC) and superoxide dismutase activity (SOD) were conducted with the test polypeptides. Testing was conducted according to USTM 190 (HORAC), USTM 191 (SORAC), USTM 192 (ORAC) and USTM 193 (SOAC) (SOD).
(§3) The peptides were tested in tubo for their antioxidant properties and tested against reference/known antioxidants. The evaluation of the antioxidant properties were conducted by determination of the ORAC (USTM 192), HORAC (USTM 190) and SOD (USTM 193) test methods.

The nature of test [2]: HORAC hydroxyl radical absorbance capacity (USTM 190), in tubo. The settings on record: for HORAC/hydroxyl: Table II; for HORAC: Tables III-IX, unit not given. On the set-up: HORAC: unit not given here. The method, then:
as §1, §2, §3

The nature of test [3]: SOD superoxide dismutase activity (USTM 193), in tubo. The settings on record: Table II; for SOD/superoxide, Active25: cells marked (Active25). The method, then: as §2, §3
Test [4] can be described thus: SORAC superoxide radical absorbance capacity (USTM 191), in tubo. The settings on record: Tables III-VIII; for SORAC: result in words; for SORAC (IC25): cells marked (IC25). Here is the method:
Tables I to IX shown below are a compilation of polypeptides studied by the inventors to ascertain those elements of the molecular structure that contribute to or negate antioxidant activity. In the course of the study, polypeptides were prepared by conventional synthesis methods and screened in tubo for antioxidant activity for peroxyl radicals (ROO.), superoxide radicals (O2.^−) and hydroxyl radicals (.OH).
In the screening standard testing for oxygen radical absorbance capacity (ORAC), hydroxyl radical absorbance capacity (HORAC), superoxide radical absorbance capacity (SORAC) and superoxide dismutase activity (SOD) were conducted with the test polypeptides. Testing was conducted according to USTM 190 (HORAC), USTM 191 (SORAC), USTM 192 (ORAC) and USTM 193 (SOAC) (SOD). Upon review of the results as indicated in the Tables, the inventors have discovered certain elements of the polypeptide structure as recited in claim 1 that are key contributors to determination of antioxidant activity.

Where no end group is shown, it is not given here.

In the case of `NCCC(=O)N[C@@H](Cc1c[nH]cn1)C(=O)O` [Carnosine, β-alanyl-histidine, reference compound], in test [1], the ORAC/peroxyl amounted to 354 μmol GAE/g. This compound came in with an HORAC/hydroxyl in test [2] of 2099 μmol GAE/g. Also, the “SOD/superoxide, Active50” value in test [3] is 0 U/mg.
As for `O=C1O[C@H]([C@@H](O)CO)C(O)=C1O` [Vitamin C, reference compound], in test [1], the ORAC/peroxyl turned out to be 4456 μmol GAE/g. In test [2], the HORAC/hydroxyl is 0 μmol GAE/g. The “SOD/superoxide, Active50” value in test [3] was 752 U/mg.
Take Ac-DESLESTRRM-NH2 [AC-SNP4]: the ORAC result in test [1] is reported as “No capacity”. In test [2], the HORAC entry was “No capacity”.
Take Ac-EELMSDIKK-NH2 [AC-SYN2]: in test [1], the ORAC entry was “No capacity”. In addition, the HORAC result in test [2] is listed as “No capacity”.
For the compound Ac-EEMLERQRR-NH2 [AC-SNP3], the ORAC entry in test [1] is “No capacity”. Also, the HORAC entry in test [2] was “No capacity”.
As to Ac-EEMQRRKKK-NH2 [AC-SNP5], the ORAC entry in test [1] is recorded as “No capacity”. Also, the HORAC result in test [2] is recorded as “No capacity”.
Consider Ac-EEVKRK-NH2 [AC-SYN1], for which, in test [1], the ORAC entry is listed as “No capacity”. In test [2], the HORAC entry is listed as “No capacity”.
Turning to Ac-KKKEEMQRR-NH2 [AC-SNP7], in test [1], the ORAC entry is given as “No capacity”. For the same compound, in test [2], the HORAC result is recorded as “No capacity”.
Regarding Ac-RRMLQLVEE-NH2 [AC-SNP1], the ORAC entry in test [1] is listed as “No capacity”. Besides, the HORAC entry in test [2] was “No capacity”.
In the case of “Ac-Valérate-EEMQRRKKK-NH2 ({Ac-Valérate}-EEMQRRKKK-NH2; not fully specified; printed as Ac-Valérate-EEMQRRKKK-NH2) [AC-SNP6]”, in test [1], the ORAC result is “No capacity”. The HORAC result in test [2] is listed as “No capacity”.
On to Ac-wRyR-NH2 [RED27], for which the ORAC in test [1] worked out at 5342. Further, the SORAC result in test [4] was “No capacity”.
In test [1], CWRYR-NH2 [RED11] yielded an ORAC of 2007. Also, in test [2], the HORAC worked out at 625. The SORAC result in test [4] is on record as “No capacity”.
In turn, HRHM [CP2.5] had an ORAC in test [1] of 952. This compound registered an HORAC in test [2] of 10192.
Turning to HWPY [S1], in test [1], the ORAC is 5955. In addition, the “SORAC (IC25)” value in test [4] is recorded as 13(IC25).
As for HWRF [IMM1], in test [1], the ORAC is 2422. Besides, in test [4], the “SORAC (IC25)” value is listed as 5(IC25).
Take “HYHY [AO1, short chain polypeptide of the invention]”: in test [1], the ORAC/peroxyl was 4748 μmol GAE/g and the ORAC was 4748. Further, in test [2], the HORAC/hydroxyl is listed as 33489 μmol GAE/g and the HORAC was found to be 33489. The “SOD/superoxide, Active25” value in test [3] is 6 (Active25) U/mg. In addition, the “SORAC (IC25)” value in test [4] is given as 6(IC25).
In test [1], KRKYWW-NH2 [RED2] had an ORAC of 1837. The HORAC in test [2] stood at 1063. In addition, the SORAC result in test [4] is given as “No capacity”.
As for RRH [CP2.6], the HORAC in test [2] came out at 41073.
Take RRHM [CP2]: in test [1], the ORAC/peroxyl stood at 1204 μmol GAE/g and the ORAC is given as 1204. Further, in test [2], the HORAC/hydroxyl turned out to be 321448 μmol GAE/g and the HORAC is 321448. For the same compound, in test [4], the “SORAC (IC25)” value was 6(IC25).
On to RYHM [AO2.1], for which, in test [1], the ORAC/peroxyl amounted to 5390 μmol GAE/g and the ORAC stood at 5390. In test [2], this compound gave an HORAC/hydroxyl of 132591 μmol GAE/g and an HORAC of 131574.
In test [1], “RYHW [AO2, short chain polypeptide of the invention]” had an ORAC/peroxyl of 9328 μmol GAE/g and an ORAC of 9328. Further, in test [2], the HORAC/hydroxyl was 41882 μmol GAE/g and the HORAC is on record as 41882. In addition, the “SOD/superoxide, Active25” value in test [3] was 4 (Active25) U/mg. The “SORAC (IC25)” value in test [4] is on record as 4(IC25).
For the compound RwRyR-NH2 [RED26], the ORAC in test [1] was found to be 4461. The SORAC result in test [4] is on record as “No capacity”.
In the same order, the values of RyR-NH2 [RED32] are 3385 and “No capacity”.
Compound WKYK-NH2 [RED25] returned an ORAC in test [1] of 4168. In test [2], this compound gave an HORAC of 2476. Besides, the SORAC entry in test [4] is “No capacity”.
On the same counts, the results for “WRYR (not fully specified (C-terminus)) [RED23]” are 4091, 2089 and “No capacity”.
On the same counts, the results for WRYR-NH2 [RED6] are 4488, 1548 and “No capacity”.
On the same counts, the results for WRYr-NH2 [RED19] are 4350, 1457 and “No capacity”.
WRyR-NH2 [RED21]: in test [1], the ORAC was 4816. Further, the HORAC in test [2] turned out to be 2472. Also, the “SORAC (IC25)” value in test [4] is listed as 7(IC25).
As to WrYR-NH2 [RED20], in test [1], the ORAC worked out at 4448. The compound further returned an HORAC in test [2] of 1666. Moreover, the SORAC result in test [4] is “No capacity”.
In the same order, the values of WrYr-NH2 [RED18] are 4758, 2982 and “No capacity”.
Take YHFR [IMM2]: in test [2], the HORAC is given as 3036. The “SORAC (IC25)” value in test [4] is reported as 5(IC25).
YWPW [S2] gave an ORAC in test [1] of 5917. In test [4], the SORAC entry is “No capacity”.
YkYkYk [RED34]: the ORAC in test [1] was determined as 355. This compound also returned an HORAC in test [2] of 1053.
As for fkwR-NH2 [RED9], the ORAC in test [1] came to 2202. Also, the HORAC in test [2] is recorded as 752. Further, the SORAC result in test [4] is “No capacity”.
On to kfRw-NH2 [RED7], for which the ORAC in test [1] worked out at 2120. The same compound yielded an HORAC in test [2] of 1124. Moreover, in test [4], the SORAC result was “No capacity”.
Regarding wRYR-NH2 [RED24], the ORAC in test [1] was 4077. In addition, the HORAC in test [2] came to 2225. Moreover, in test [4], the SORAC entry was “No capacity”.
As for wRwR-NH2 [RED31], the ORAC in test [1] is on record as 4652. Moreover, the SORAC entry in test [4] is recorded as “No capacity”.
In the case of wRyR-NH2 [RED22], in test [1], the ORAC was found to be 5383. The compound further came in with an HORAC in test [2] of 1686. The SORAC entry in test [4] was “No capacity”.
For the compound wRyRw-NH2 [RED29], the ORAC in test [1] is listed as 5512. The SORAC entry in test [4] is given as “No capacity”.
The compound wRyRy-NH2 [RED28] gave an ORAC in test [1] of 5216. Further, the “SORAC (IC25)” value in test [4] was 3(IC25).

The values are drawn from US9464111B2, “Short peptides and a method of use as an antioxidant” (L'OREAL, priority 2014, dated 2016).
